{
  "source": "patent US5827895A",
  "about": "“Hexahydrolupulones useful as anticancer agents” (Regents of the University of Minnesota, priority 1996, dated 1998)",
  "key": {"[1]": {"system": "KB cells (human oral epidermoid carcinoma)", "experiment": "Trypan blue exclusion assay, cytostatic activity, KB", "assay_type": "cell-based", "settings": "incubation 48h, 3 experiments, read-out: ID50 (the source's name)"}, "[2]": {"system": "VRE (Vancomycin resistant enterococcus)", "experiment": "Minimum inhibitory concentration, VRE", "assay_type": "cell-based"}, "[3]": {"system": "CEM cells (human acute lymphoblastic leukemia)", "experiment": "Trypan blue exclusion assay, cytostatic activity, CEM", "assay_type": "cell-based", "settings": "CCRF-CEM, incubation 48h, 4 experiments, read-out: ID50 (the source's name)"}, "[4]": {"system": "OxaRSA (Oxacillin Resistant Staphylococcus aureus)", "experiment": "Patient isolates evaluated for antibiotic sensitivity, OxaRSA", "experimental": "HHC was also tested for effectiveness against various bacterial isolates obtained from human subjects."}, "Leishmania tarentolae": {"system": "Leishmania tarentolae", "experiment": "Anti-protozoal activity, cell counts of Leishmania tarentolae", "assay_type": "cell-based", "settings": "for activity at 0.1 µM / activity at 0.25 µM / activity at 0.5 µM / activity at 1 µM / activity at 2.5 µM: Leishmania tarentolae, read-out: % control", "procedure": "Leishmania tarentolae was grown in BHI (brain heart infusion; Difco) supplemented with 10 μg/ml of hemin. Leishmanial cells were counted by doing a 1:1 dilution of the cells with 3% formaldehyde/1×SSC (0.15 M NaCl/0.015 M sodium citrate) solution. Cells were seeded at log phase (0.5-1×10^6 cells/ml) in T-25 cm^2 flasks. Equal volumes of HHC at different concentrations (0.1, 0.25, 0.5, 1.0, 2.5 μM) were added to the cells. DMSO at the same volume as that used for HHC was included as solvent control. At each time point (6, 12, 18, 24, 32 hrs post-drug addition), cells were observed under the microscope for possible effect of HHC on Leishmanial motility. Aliquots of cells (100 μl) were removed from each flask at each time point, diluted as mentioned above and cell numbers were quantitated using a hemocytometer."}, "[5]": {"system": "MCF-7 cells (human breast adenocarcinoma)", "experiment": "Trypan blue exclusion assay, cytostatic activity, MCF-7", "assay_type": "cell-based", "settings": "MCF7, incubation 48h, 3 experiments, read-out: ID50 (the source's name)"}, "[6]": {"system": "Raji cells (human Burkitt lymphoma)", "experiment": "Trypan blue exclusion assay, cytostatic activity, Raji", "assay_type": "cell-based", "settings": "incubation 24h, 4 experiments, read-out: ID50 (the source's name)"}, "[7]": {"system": "Multidrug resistant Staphylococcus (except to Vancomycin)", "experiment": "Minimum inhibitory concentration, multidrug resistant Staphylococcus", "assay_type": "cell-based"}, "MCF-7 cells": {"system": "MCF-7 cells", "experiment": "Fluorescence activated cell sorting (FACS), cell cycle phase", "assay_type": "cell-based, human", "settings": "for cell cycle phase distribution: 48 hours", "procedure": "Fluorescence activated cell sorting (FACS) was used to determine what percentage of cells could be found in the designated cell cycle phase after 48 hours of continuous HHC exposure. There are four distinct phases in the cell cycle which lead to duplication of the cell and its genetic material. In the G0/G1 phase the cell is at rest or is performing miscellaneous biosynthetic functions. During the S phase, DNA synthesis occurs which leads to replication of the chromosomes. G2 is the pre-mitotic interval while the M phase is the time during which the cell divides.\nMCF-7 cells were exposed to concentrations of 1.5 μM and 25 μM of HHC, and DMSO. DMSO had no significant effect on the cell cycle, with a profile almost identical to that of the \"no drug\" control."}, "Staphylococcus aureus": {"system": "Staphylococcus aureus", "experiment": "Growth of Staphylococcus aureus in LB broth by OD600 (FIG. 1)", "assay_type": "cell-based", "settings": "0.5-25 μM", "procedure": "A single colony of Staphylococcus aureus was grown in 2 ml of Luria-Bertani(LB) broth overnight at 37° C. in a bacterial shaker with vigorous shaking. 0.5 ml of the culture was transferred to 250 ml LB and allowed to grow at 37° C. until the OD600 (optical density) reading was about 0.2 (a reading of 1 OD600 indicates a cell concentration of approximately 8×10^8 cells/ml). […] No-drug and DMSO solvent were used as controls. Aliquots of the bacterial culture were taken every 2 hours to obtain the OD600 reading."}},
  "note": "“Also recorded” adds a separate entry of the source. Like-named read-outs stand apart in the source and are kept apart here.",
  "data": [
    {"smiles": "CC(C)CCC1=C(O)C(C(=O)C(C)C)=C(O)C(CCC(C)C)(CCC(C)C)C1=O", "note": "[HHC, hexahydrocolupulone]", "values": [
      {"measurement": "IC50", "setting": "[1]", "result": 850, "unit": "nM"},
      {"measurement": "cross resistance with vancomycin", "setting": "[2]", "result": "not cross resistant with vancomycin"},
      {"measurement": "MIC", "setting": "[2]; Enterococcus", "result": 5, "unit": "µM"},
      {"measurement": "IC50", "setting": "[3]", "result": 1970, "unit": "nM"},
      {"measurement": "MIC", "setting": "[4]; Staphylococcus aureus, read-out: [HHC] (MIC)", "result": 1.01, "unit": "µg/mL"},
      {"measurement": "antibiotic sensitivity", "setting": "[4]; patient G, OxaRSA, threshold not given", "result": "S"},
      {"measurement": "cells/ml", "setting": "Leishmania tarentolae; 0.1 μM, 6 hr", "result": "2.65 no. of cells × 10^6"},
      {"measurement": "cells/ml", "setting": "Leishmania tarentolae; 0.1 μM, 12 hr", "result": "6.58 no. of cells × 10^6"},
      {"measurement": "cells/ml", "setting": "Leishmania tarentolae; 0.1 μM, 18 hr", "result": "12.1 no. of cells × 10^6"},
      {"measurement": "cells/ml", "setting": "Leishmania tarentolae; 0.1 μM, 24 hr", "result": "21.2 no. of cells × 10^6"},
      {"measurement": "cells/ml", "setting": "Leishmania tarentolae; 0.1 μM, 32 hr", "result": "43.9 no. of cells × 10^6"},
      {"measurement": "cells/ml", "setting": "Leishmania tarentolae; 0.25 μM, 6 hr", "result": "3.0 no. of cells × 10^6"},
      {"measurement": "cells/ml", "setting": "Leishmania tarentolae; 0.25 μM, 12 hr", "result": "7.35 no. of cells × 10^6"},
      {"measurement": "cells/ml", "setting": "Leishmania tarentolae; 0.25 μM, 18 hr", "result": "12.7 no. of cells × 10^6"},
      {"measurement": "cells/ml", "setting": "Leishmania tarentolae; 0.25 μM, 24 hr", "result": "19.72 no. of cells × 10^6"},
      {"measurement": "cells/ml", "setting": "Leishmania tarentolae; 0.25 μM, 32 hr", "result": "40.1 no. of cells × 10^6"},
      {"measurement": "cells/ml", "setting": "Leishmania tarentolae; 0.5 μM, 6 hr", "result": "2.43 no. of cells × 10^6"},
      {"measurement": "cells/ml", "setting": "Leishmania tarentolae; 0.5 μM, 12 hr", "result": "5.13 no. of cells × 10^6"},
      {"measurement": "cells/ml", "setting": "Leishmania tarentolae; 0.5 μM, 18 hr", "result": "9.22 no. of cells × 10^6"},
      {"measurement": "cells/ml", "setting": "Leishmania tarentolae; 0.5 μM, 24 hr", "result": "14.2 no. of cells × 10^6"},
      {"measurement": "cells/ml", "setting": "Leishmania tarentolae; 0.5 μM, 32 hr", "result": "29.2 no. of cells × 10^6"},
      {"measurement": "cells/ml", "setting": "Leishmania tarentolae; 1.0 μM, 6 hr", "result": "2.09 no. of cells × 10^6"},
      {"measurement": "cells/ml", "setting": "Leishmania tarentolae; 1.0 μM, 12 hr", "result": "2.53 no. of cells × 10^6"},
      {"measurement": "cells/ml", "setting": "Leishmania tarentolae; 1.0 μM, 18 hr", "result": "2.55 no. of cells × 10^6"},
      {"measurement": "cells/ml", "setting": "Leishmania tarentolae; 1.0 μM, 24 hr", "result": "2.9 no. of cells × 10^6"},
      {"measurement": "cells/ml", "setting": "Leishmania tarentolae; 1.0 μM, 32 hr", "result": "3.4 no. of cells × 10^6"},
      {"measurement": "cells/ml", "setting": "Leishmania tarentolae; 2.5 μM, 6 hr", "result": "1.81 no. of cells × 10^6"},
      {"measurement": "cells/ml", "setting": "Leishmania tarentolae; 2.5 μM, 12 hr", "result": "3.03 no. of cells × 10^6"},
      {"measurement": "cells/ml", "setting": "Leishmania tarentolae; 2.5 μM, 18 hr", "result": "3.38 no. of cells × 10^6"},
      {"measurement": "cells/ml", "setting": "Leishmania tarentolae; 2.5 μM, 24 hr", "result": "2.13 no. of cells × 10^6"},
      {"measurement": "cells/ml", "setting": "Leishmania tarentolae; 2.5 μM, 32 hr", "result": "2.82 no. of cells × 10^6"},
      {"measurement": "activity at 0.1 µM", "setting": "Leishmania tarentolae; 0.1 μM, 6 hr", "result": 76.4, "unit": "%"},
      {"measurement": "activity at 0.1 µM", "setting": "Leishmania tarentolae; 0.1 μM, 12 hr", "result": 96.6, "unit": "%"},
      {"measurement": "activity at 0.1 µM", "setting": "Leishmania tarentolae; 0.1 μM, 18 hr", "result": 96.8, "unit": "%"},
      {"measurement": "activity at 0.1 µM", "setting": "Leishmania tarentolae; 0.1 μM, 24 hr", "result": 118, "unit": "%"},
      {"measurement": "activity at 0.1 µM", "setting": "Leishmania tarentolae; 0.1 μM, 32 hr", "result": 114, "unit": "%"},
      {"measurement": "activity at 0.25 µM", "setting": "Leishmania tarentolae; 0.25 μM, 6 hr", "result": 86.5, "unit": "%"},
      {"measurement": "activity at 0.25 µM", "setting": "Leishmania tarentolae; 0.25 μM, 12 hr", "result": 103, "unit": "%"},
      {"measurement": "activity at 0.25 µM", "setting": "Leishmania tarentolae; 0.25 μM, 18 hr", "result": 101, "unit": "%"},
      {"measurement": "activity at 0.25 µM", "setting": "Leishmania tarentolae; 0.25 μM, 24 hr", "result": 110, "unit": "%"},
      {"measurement": "activity at 0.25 µM", "setting": "Leishmania tarentolae; 0.25 μM, 32 hr", "result": 104, "unit": "%"},
      {"measurement": "activity at 0.5 µM", "setting": "Leishmania tarentolae; 0.5 μM, 6 hr", "result": 70, "unit": "%"},
      {"measurement": "activity at 0.5 µM", "setting": "Leishmania tarentolae; 0.5 μM, 12 hr", "result": 72.1, "unit": "%"},
      {"measurement": "activity at 0.5 µM", "setting": "Leishmania tarentolae; 0.5 μM, 18 hr", "result": 73.8, "unit": "%"},
      {"measurement": "activity at 0.5 µM", "setting": "Leishmania tarentolae; 0.5 μM, 24 hr", "result": 79.3, "unit": "%"},
      {"measurement": "activity at 0.5 µM", "setting": "Leishmania tarentolae; 0.5 μM, 32 hr", "result": 75.6, "unit": "%"},
      {"measurement": "activity at 1 µM", "setting": "Leishmania tarentolae; 1.0 μM, 6 hr", "result": 60.2, "unit": "%"},
      {"measurement": "activity at 1 µM", "setting": "Leishmania tarentolae; 1.0 μM, 12 hr", "result": 35.5, "unit": "%"},
      {"measurement": "activity at 1 µM", "setting": "Leishmania tarentolae; 1.0 μM, 18 hr", "result": 20.4, "unit": "%"},
      {"measurement": "activity at 1 µM", "setting": "Leishmania tarentolae; 1.0 μM, 24 hr", "result": 16.2, "unit": "%"},
      {"measurement": "activity at 1 µM", "setting": "Leishmania tarentolae; 1.0 μM, 32 hr", "result": 8.8, "unit": "%"},
      {"measurement": "activity at 2.5 µM", "setting": "Leishmania tarentolae; 2.5 μM, 6 hr", "result": 52.2, "unit": "%"},
      {"measurement": "activity at 2.5 µM", "setting": "Leishmania tarentolae; 2.5 μM, 12 hr", "result": 42.6, "unit": "%"},
      {"measurement": "activity at 2.5 µM", "setting": "Leishmania tarentolae; 2.5 μM, 18 hr", "result": 27, "unit": "%"},
      {"measurement": "activity at 2.5 µM", "setting": "Leishmania tarentolae; 2.5 μM, 24 hr", "result": 11.9, "unit": "%"},
      {"measurement": "activity at 2.5 µM", "setting": "Leishmania tarentolae; 2.5 μM, 32 hr", "result": 7.3, "unit": "%"},
      {"measurement": "IC50", "setting": "[5]", "result": 1230, "unit": "nM"},
      {"measurement": "IC50", "setting": "[6]", "result": 2190, "unit": "nM"},
      {"measurement": "MIC", "setting": "[7]", "result": 2.5, "unit": "µM"},
      {"measurement": "cell cycle phase distribution", "setting": "MCF-7 cells; 1.5 μM HHC", "result": "increase the number of cells in G0/G1 and decrease the number of cells in S phase"},
      {"measurement": "cell cycle phase distribution", "setting": "MCF-7 cells; 25 μM HHC", "result": "decrease in the number of cells in G0/G1 and an increase in the number of cells in S phase"},
      {"measurement": "effect upon G1-S phase transition", "setting": "MCF-7 cells; FACS", "result": "apparent effect upon the G1-S phase transition of the cell cycle; also recorded: has an effect upon the G1-S phase transition of the cell cycle"},
      {"measurement": "inhibition of bacterial growth (OD600)", "setting": "Staphylococcus aureus", "result": "effective inhibitor of bacterial growth"}
    ]}
  ]
}
